From ChEMBL document CHEMBL5038635, “Discovery of Salidroside-Derivated Glycoside Analogues as Novel Angiogenesis Agents to Treat Diabetic Hind Limb Ischemia” (J Med Chem, 2022)
In brackets after ≈: the same amount, converted by molar mass. Each block holds one compound with its values, some of them ahead of it. Activity calls are given as the source filed them. The calls are words filed in the database; no cut-off is given here.

Key:
[1] = target: Hypoxia-inducible factor 1-alpha (Mus musculus) (UniProt Q61221); assay: Inhibition of HIF-1alpha in mouse C2C12 cells transfected with HRE-driven firefly luciferase gene assessed as fold change in transcriptional activity at 300 uM pretreated with compound for 12 hr followed by hypoxic condition for 24 hrs by dual luciferase reporter gene assay; assay type: cell-based; details: time 36.0 hrs
[2] = target: Hypoxia-inducible factor 1-alpha (Mus musculus) (UniProt Q61221); assay: Inhibition of HIF-1alpha in mouse C2C12 cells transfected with PDGF-B driven firefly luciferase gene assessed as transcriptional activity pretreated with compound for 12 hr followed by hypoxic condition for 24 hrs by dual luciferase reporter gene assay; assay type: cell-based; details: time 36.0 hrs
[3] = Octanol/Water partition coefficient, log P of the compound by HPLC-UV analysis
[4] = system: C2C12; assay: Angiogenic activity in mouse C2C12 cells assessed as accumulation ANG1 protein expression at 300 uM by Western blot analysis; assay type: functional, cell-based
[5] = system: C2C12; assay: Angiogenic activity in mouse C2C12 cells assessed as reversal of hyperglycemia-induced reduction in total cell number at 15 uM measured after 36 hrs by EdU-incorporation assay; assay type: functional, cell-based
[6] = Permeability coefficient across apical to basolateral side in human Caco-2 cells by HPLC-UV analysis
[7] = system: C2C12; assay: Induction of proliferation of hyperglycemia-induced mouse C2C12 cell apoptosis assessed as decrease in Annexin V/PI-positive cells at 15 uM pretreated with compound under hyperglycemia condition for 12 hr followed by hypoxia for 24 hrs; assay type: functional, cell-based; details: time 36.0 hrs
[8] = system: C2C12; assay: Apoptotic rate in hyperglycemia-treated mouse C2C12 cells assessed as necrotic cells at 30 uM by AnnexinV-FITC/PI staining based flow cytometric analysis (reference value: 0.56 %); assay type: functional
[9] = system: C2C12; assay: Apoptotic rate in hyperglycemia-treated mouse C2C12 cells assessed as viable cells at 30 uM by AnnexinV-FITC/PI staining based flow cytometric analysis (reference value: 81.90 %); assay type: functional; details: read-out: Activity
[10] = system: C2C12; assay: Angiogenic activity in mouse C2C12 cells assessed as reversal of hyperglycemia-induced reduction in total cell number at 100 uM measured after 36 hrs by EdU-incorporation assay; assay type: functional, cell-based
[11] = system: C2C12; assay: Angiogenic activity in mouse C2C12 cells assessed as reversal of hyperglycemia-induced reduction in total cell number at 30 uM measured after 24 hrs by EdU-incorporation assay; assay type: functional, cell-based
[12] = system: C2C12; assay: Angiogenic activity in mouse C2C12 cells assessed as accumulation HIF-1alpha protein expression at 300 uM by Western blot analysis; assay type: functional, cell-based
[13] = Efflux ratio of Apparent permeability across basolateral to apical side over apical to basolateral side in human Caco-2 cells
[14] = system: C2C12; assay: Angiogenic activity in mouse C2C12 cells assessed as accumulation VEGF-A protein expression at 300 uM by Western blot analysis; assay type: functional, cell-based
[15] = system: C2C12; assay: Apoptotic rate in hyperglycemia-treated mouse C2C12 cells assessed as late apoptotic cells at 15 uM by AnnexinV-FITC/PI staining based flow cytometric analysis (reference value: 10.44 %); assay type: functional
[16] = system: C2C12; assay: Apoptotic rate in hyperglycemia-treated mouse C2C12 cells assessed as late apoptotic cells at 30 uM by AnnexinV-FITC/PI staining based flow cytometric analysis (reference value: 10.44 %); assay type: functional
[17] = system: C2C12; assay: Induction of proliferation of hyperglycemia-induced mouse C2C12 cell apoptosis assessed as decrease in Annexin V/PI-positive cells at 30 uM pretreated with compound under hyperglycemia condition for 12 hr followed by hypoxia for 24 hrs; assay type: functional, cell-based; details: time 36.0 hrs
[18] = system: C2C12; assay: Angiogenic activity in mouse C2C12 cells assessed as reversal of hyperglycemia-induced reduction in total cell number at 300 uM measured after 36 hrs by EdU-incorporation assay; assay type: functional, cell-based
[19] = Dissociation constant, pKa of compound by UV-visible spectrometric method; assay type: physicochemical
[20] = system: C2C12; assay: Induction of proliferation of hyperglycemia-induced mouse C2C12 cell death assessed as increase in number of EdU-positive cells at 7.5 to 300 uM pretreated with compound under hyperglycemia condition for 12 hr followed by hypoxia for 24 hrs; assay type: functional, cell-based; details: dose 7.5-300 µM, time 36.0 hrs
[21] = system: C2C12; assay: Apoptotic rate in hyperglycemia-treated mouse C2C12 cells assessed as early apoptotic cells at 15 uM by AnnexinV-FITC/PI staining based flow cytometric analysis (reference value: 7.10 %); assay type: functional
[22] = Water solubility of the compound by HPLC analysis
[23] = system: C2C12; assay: Apoptotic rate in hyperglycemia-treated mouse C2C12 cells assessed as viable cells at 15 uM by AnnexinV-FITC/PI staining based flow cytometric analysis (reference value: 81.90 %); assay type: functional; details: read-out: Activity
[24] = Permeability coefficient across basolateral to apical side in human Caco-2 cells by HPLC-UV analysis
[25] = system: C2C12; assay: Angiogenic activity in mouse C2C12 cells assessed as reversal of hyperglycemia-induced reduction in total cell number at 7.5 uM measured after 36 hrs by EdU-incorporation assay; assay type: functional, cell-based
[26] = system: C2C12; assay: Induction of proliferation of hyperglycemia-induced mouse C2C12 cell death assessed as increase in number of EdU-positive cells at 15 uM pretreated with compound under hyperglycemia condition for 12 hr followed by hypoxia for 24 hrs; assay type: functional, cell-based; details: time 36.0 hrs
[27] = system: C2C12; assay: Apoptotic rate in hyperglycemia-treated mouse C2C12 cells assessed as necrotic cells at 15 uM by AnnexinV-FITC/PI staining based flow cytometric analysis (reference value: 0.56 %); assay type: functional
[28] = system: C2C12; assay: Angiogenic activity in mouse C2C12 cells assessed as accumulation PDGF-BB protein expression at 300 uM by Western blot analysis; assay type: functional, cell-based
[29] = system: C2C12; assay: Apoptotic rate in hyperglycemia-treated mouse C2C12 cells assessed as early apoptotic cells at 30 uM by AnnexinV-FITC/PI staining based flow cytometric analysis (reference value: 7.10 %); assay type: functional

Chain of Hypoxia-inducible factor 1-alpha (Mus musculus) (Q61221 whole entry): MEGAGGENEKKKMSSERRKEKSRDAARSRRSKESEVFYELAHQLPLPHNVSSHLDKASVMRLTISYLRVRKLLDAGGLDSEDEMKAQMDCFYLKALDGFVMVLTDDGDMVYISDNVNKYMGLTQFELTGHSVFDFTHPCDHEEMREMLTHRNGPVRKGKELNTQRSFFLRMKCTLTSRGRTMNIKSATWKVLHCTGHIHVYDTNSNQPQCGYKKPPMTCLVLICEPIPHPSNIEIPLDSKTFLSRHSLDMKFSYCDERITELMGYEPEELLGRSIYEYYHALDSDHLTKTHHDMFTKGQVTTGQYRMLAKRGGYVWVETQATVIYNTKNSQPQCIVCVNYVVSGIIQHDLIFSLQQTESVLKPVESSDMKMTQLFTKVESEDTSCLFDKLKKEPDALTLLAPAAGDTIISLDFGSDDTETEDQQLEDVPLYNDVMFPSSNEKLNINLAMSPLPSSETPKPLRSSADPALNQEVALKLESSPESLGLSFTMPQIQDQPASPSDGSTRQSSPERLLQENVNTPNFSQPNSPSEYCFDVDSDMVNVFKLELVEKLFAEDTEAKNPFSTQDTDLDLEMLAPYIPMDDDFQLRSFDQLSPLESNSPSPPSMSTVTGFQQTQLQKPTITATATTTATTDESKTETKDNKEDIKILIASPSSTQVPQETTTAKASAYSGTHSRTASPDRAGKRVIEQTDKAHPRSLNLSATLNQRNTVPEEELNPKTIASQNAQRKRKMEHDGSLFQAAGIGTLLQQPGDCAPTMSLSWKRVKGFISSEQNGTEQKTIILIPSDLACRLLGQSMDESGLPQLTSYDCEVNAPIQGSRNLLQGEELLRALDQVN

fold change (FC) [1]: 1.63
inhibition [2]: Active
Structure (SMILES): OC[C@H]1O[C@@H](OCC2(c3ccc(O)cc3)CCC2)[C@H](O)[C@@H](O)[C@@H]1O

logP [3]: 1.02
Papp A→B [6]: 1.68 ×10⁻⁶ cm/s
efflux ratio [13]: 1.06
fold change (FC) [1]: 2.5
pKa [19]: > 14
solubility [22]: 1320 µg/mL (≈ 3.51 mM)
Papp B→A [24]: 1.78 ×10⁻⁶ cm/s
inhibition [2]: Active
Structure (SMILES): COc1ccc(Cc2ccc(O[C@@H]3O[C@H](CO)[C@@H](O)[C@H](O)[C@H]3O)cc2)cc1
inhibition [4]: Active
Activity [5]: Active
Activity [7]: inactive
Activity [8]: 0.41%
viability at 30 µM [9]: 89.2%
Activity [10]: Active
Activity [11]: Active
inhibition [12]: Active
inhibition [14]: Active
Activity [15]: 10.59%
Activity [16]: 7.14%
Activity [17]: inactive
Activity [18]: Active
Activity [20]: inactive
Activity [21]: 5.4%
viability at 15 µM [23]: 83.5%
Activity [25]: inactive
Activity [26]: Active
Activity [27]: 0.49%
inhibition [28]: Active
Activity [29]: 3.21%

fold change (FC) [1]: 1.69
inhibition [2]: Active
Structure (SMILES): COc1ccc(CCO[C@@H]2O[C@H](CO)[C@@H](O)[C@H](O)[C@H]2O)cc1

Papp A→B [6]: 1.33 ×10⁻⁶ cm/s
efflux ratio [13]: 11.1
Papp B→A [24]: 14.7 ×10⁻⁶ cm/s
Structure (SMILES): C[C@H]1O[C@@H](O[C@H]2[C@@H](O)C[C@H](O[C@H]3[C@@H](O)C[C@H](O[C@H]4CC[C@@]5(C)[C@H](CC[C@@H]6[C@@H]5C[C@@H](O)[C@]5(C)[C@@H](C7=CC(=O)OC7)CC[C@]65O)C4)O[C@@H]3C)O[C@@H]2C)C[C@H](O)[C@@H]1O [DIGOXIN]

inhibition [2]: inactive
Structure (SMILES): OC[C@H]1O[C@@H](CCCc2ccc(O)cc2)[C@H](O)[C@@H](O)[C@@H]1O

logP [3]: 1.07
Papp A→B [6]: 1.75 ×10⁻⁶ cm/s
efflux ratio [13]: 1.04
fold change (FC) [1]: 0.78
pKa [19]: > 14
solubility [22]: 6710 µg/mL (≈ 17.8 mM)
Papp B→A [24]: 1.82 ×10⁻⁶ cm/s
Structure (SMILES): COc1ccc(Cc2ccccc2O[C@@H]2O[C@H](CO)[C@@H](O)[C@H](O)[C@H]2O)cc1 [SERGLIFLOZIN A]

HIF-1alpha inhibition call (active/inactive) [1]: Active
Structure (SMILES): OC[C@H]1O[C@@H](Oc2ccc(Cc3ccc(O)c(O)c3)cc2)[C@H](O)[C@@H](O)[C@@H]1O

fold change (FC) [1]: 2.5
inhibition [2]: Active
Structure (SMILES): COc1ccc(-c2ccc(O[C@@H]3O[C@H](CO)[C@@H](O)[C@H](O)[C@H]3O)cc2)cc1

fold change (FC) [1]: 1.76
inhibition [2]: Active
Structure (SMILES): OC[C@H]1O[C@@H](OCCc2ccccc2)[C@H](O)[C@@H](O)[C@@H]1O

inhibition [2]: Active
Structure (SMILES): COc1ccc(C(C)(C)CO[C@@H]2O[C@H](CO)[C@@H](O)[C@H](O)[C@H]2O)cc1

logP [3]: 0.076
Papp A→B [6]: 1.3 ×10⁻⁶ cm/s
efflux ratio [13]: 1.09
pKa [19]: 10.4
solubility [22]: 1640 µg/mL (≈ 4.53 mM)
Papp B→A [24]: 1.42 ×10⁻⁶ cm/s
Structure (SMILES): OC[C@H]1O[C@@H](Oc2ccc(Cc3ccc(O)cc3)cc2)[C@H](O)[C@@H](O)[C@@H]1O

fold change (FC) [1]: 1.73
Structure (SMILES): CC(C)(CO[C@@H]1O[C@H](CO)[C@@H](O)[C@H](O)[C@H]1O)c1ccc(O)cc1

fold change (FC) [1]: 2.5
inhibition [2]: Active
Structure (SMILES): COc1ccc(-c2cccc(O[C@@H]3O[C@H](CO)[C@@H](O)[C@H](O)[C@H]3O)c2)cc1

fold change (FC) [1]: 1.47
inhibition [2]: Active
Structure (SMILES): OC[C@H]1O[C@@H](OCCc2ccc(F)cc2)[C@H](O)[C@@H](O)[C@@H]1O

Papp A→B [6]: 0.35 ×10⁻⁶ cm/s
Structure (SMILES): O=S1(=O)OC(c2ccc(O)cc2)(c2ccc(O)cc2)c2ccccc21 [PHENOLSULFONPHTHALEIN]

fold change (FC) [1]: 1.52
Structure (SMILES): OC[C@H]1O[C@@H](OCCCc2ccc(O)cc2)[C@H](O)[C@@H](O)[C@@H]1O
